Results on 5 molecules are retold here after patent US8497272B2, “Compounds for treating proliferative disorders” (Synta Pharmaceuticals Corp., priority 2006, dated 2013).

In the assay the test system is inducible human Hsp70. The experiment in a line: Hsp70 RNA induction by quantitative PCR analysis in Ramos B cells. In kind it is cell-based. As to conditions: 500 nM compound, 6 hours, Hsp70 RNA relative to gapdh; for % induction relative to Compound X: Compound X set to 100%; for fold induction at 0.5 µM: Homo sapiens, read-out: fold induction over DMSO. As for the experimental part: The ability of the compounds of the invention to induce Hsp70 RNA induction by quantitative PCR analysis was examined. Ramos B cells were treated with 500 nM each compound for 6 hours and the RNA was isolated from the cells. Quantitative PCR was performed as described below:
Details for Quantitative PCR are as follows:
500 ng of RNA from each sample was used for cDNA synthesis using iScript cDNA Synthesis Kit (Biorad, Cat#170-8891). 1 ul of cDNA mixture was used with the iQ SYBR Green Supermix (Biorad, Cat#170-8882) to perform quantitative PCR in an iCycler machine (Biorad) using standard protocols. QPCR for each sample/time point was performed in duplicate. The following primers for inducible human Hsp70 and gapdh were used: […]
Ct values were obtained from the iCycler program and used in an equation (2^−ΔΔCT) for determining the amount of target relative to gapdh expression. This compares the relative expression of Hsp70 to the corresponding levels of gapdh in each sample. Duplicate wells were averaged. The amount of N-Malonyl-bis(N′-methyl-N′ thiobenzoylhydrazide) (Compound X) induction of Hsp70 was set to 100% and the percent of induction of Hsp70 by the compounds of the invention was determined relative to 100%.

Regarding `COC(=S)N(C)NC(=O)CC(=O)NN(C)C(=S)OC` [Compound 70], the “% induction relative to Compound X” value was found to be 0.57% and the fold induction at 0.5 µM came to 1.41.

`CN(NC(=O)CC(=O)NN(C)C(=S)NC1CC1)C(=S)NC1CC1` [Compound 69]: the “% induction relative to Compound X” value turned out to be 0.12% and the fold induction at 0.5 µM amounted to 0.3.

For `CN(NC(=O)c1cc(=O)cc(C(=O)NN(C)C(=S)c2ccccc2)o1)C(=S)c1ccccc1` [Compound 74, N′2,N′6-dimethyl-4-oxo-N′2,N′6-di(phenylcarbonothioyl)-4H-pyran-2,6-dicarbohydrazide], the “% induction relative to Compound X” value turned out to be 0.22% and the fold induction at 0.5 µM was 0.59.

Regarding `CN(NC(=O)CC(=O)NN(C)c1nccs1)c1nccs1` [Compound 71], the “% induction relative to Compound X” value came out at 0.33% and the fold induction at 0.5 µM was found to be 0.87.

For the molecule `CN(NC(=O)CC(=O)NN(C)C(=S)Nc1ccccc1)C(=S)Nc1ccccc1` [Compound 67], the “% induction relative to Compound X” value is 0.09% and the fold induction at 0.5 µM came to 0.22.
